Reference: PubChem BioAssay (NCI)
Several values for one entry are separate records, joined by “and”; a condition that tells them apart may be missing. Equal entries are not always repeated.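 Tested at 5 concentrations; 48 h exposure; 96-well plates; endpoints linearly interpolated, else capped at highest concentration. GI50 marks 50% less growth. Definition used: TGI = concentration required for complete inhibition of growth.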

Legend:
Assay in all cases: NCI-60 cell line screen, 48 h
[1] = system: COLO 205 colon
[2] = system: MCF7 breast
[3] = system: MOLT-4 leukemia
[4] = system: SNB-75 CNS
[5] = system: OVCAR-8 ovarian
[6] = system: OVCAR-3 ovarian
[7] = system: U251 CNS
[8] = system: OVCAR-5 ovarian
[9] = system: HOP-62 NSCLC
[10] = system: M14 melanoma

Structure (SMILES)	GI50 [1]	TGI [1]	GI50 [2]	TGI [2]	GI50 [3]	TGI [3]	GI50 [4]	TGI [4]	GI50 [5]	TGI [5]	GI50 [6]	TGI [6]	GI50 [7]	TGI [7]	GI50 [8]	TGI [8]	GI50 [9]	TGI [9]	GI50 [10]	TGI [10]
COc1ccc(-c2nc3ncccn3c2/C=C/C(=O)c2cc(OC)c(OC)c(OC)c2)cc1	1.7 µM	3.07 µM	1.14 µM	3.32 µM	3.1 µM	> 100 µM	1.89 µM	5.05 µM	2.72 µM	> 100 µM	1.75 µM	4.79 µM	1.29 µM	4.26 µM	1.53 µM	3.59 µM	2.83 µM	10.3 µM	1.53 µM	3.08 µM
CC1(C)CC(n2cnc(-c3ccc(F)cc3)c2-c2ccnc(N)n2)CC(C)(C)N1	12.7 µM	> 25 µM	6.01 µM	> 19.6 µM	17.4 µM	> 25 µM	> 16.5 µM	> 25 µM	15.6 µM	> 25 µM	> 25 µM	> 25 µM	> 20.1 µM	> 25 µM	24.4 µM	> 25 µM	> 16.8 µM	> 25 µM	> 25 µM	> 25 µM
CCN=c1cc2sc3cc(NCC)c(C)cc3nc-2cc1C	2.15 µM	7.78 µM	0.242 µM	0.937 µM	0.714 µM	> 100 µM	1.8 µM	5.11 µM	1.22 µM	11.8 µM	0.149 µM	0.714 µM	0.646 µM	6.71 µM	2.51 µM	9.26 µM	2.09 µM	7.34 µM	0.636 µM	2.74 µM
c1ccc2c(c1)-c1ccccc1C2N1CC2CCC(CC2)C1		38.1 µM		32.7 µM		28.2 µM		61.4 µM		> 100 µM		40.5 µM		30.9 µM		37.2 µM		62 µM		75.4 µM
COc1cc2c(Oc3ccc4[nH]c(C)cc4c3F)ccnc2cc1OCC1(N)CC1	2.29 µM	5.61 µM	0.484 µM	24.6 µM	0.971 µM	14 µM	0.651 µM	2.46 µM	2.92 µM	> 100 µM	0.809 µM	24.7 µM	0.674 µM	7.15 µM	3.37 µM	10.3 µM	1.59 µM	35.6 µM	1.02 µM	2.53 µM
COc1cc2c(cc1OCCCCCCN1CCN(c3ncnc4ccccc34)CC1)N=CC1CCCN1C2=O (centres undefined)	0.0176 µM	0.134 µM	< 0.0222 µM	0.597 µM	0.0378 µM	0.203 µM	0.0407 µM	0.256 µM	0.188 µM		0.0336 µM	0.088 µM	0.0736 µM	1.05 µM	0.29 µM	13.4 µM	0.29 µM	3.82 µM	0.171 µM	1.22 µM
C=C[C@H]1CCC/C=C/[C@@H]2C[C@H](O)C[C@H]2[C@H](O)/C=C/C(=O)O1	0.0194 µM	0.0365 µM	0.021 µM	0.0532 µM	0.0387 µM	> 100 µM	< 0.01 µM	> 100 µM	0.0374 µM	> 100 µM	0.0242 µM	0.0576 µM	0.0428 µM	> 100 µM	0.0504 µM	> 100 µM	0.0488 µM		0.0353 µM	> 100 µM
Cc1cc(I)cc(CN(C)CCN2CCCC2)c1O	19 µM	40.2 µM	24.3 µM	53.7 µM	3.35 µM	21 µM	17.5 µM	47.2 µM	46.7 µM	> 100 µM	38.2 µM	> 100 µM	31.5 µM	> 95.8 µM	32.8 µM	> 93.6 µM	24.1 µM	87.5 µM	15.8 µM	34.8 µM
O=P([O-])(O)OP(=O)([O-])O.[NH-][C@@H]1CCCC[C@H]1[NH-].[Pt+4]	6.13 µM and 6.32 µM	> 100 µM and 21.5 µM	7.78 µM and 2.93 µM	> 100 µM	5.9 µM and 3.29 µM	> 100 µM	> 100 µM and 34 µM	> 100 µM	14.1 µM and 2.42 µM	> 100 µM	23.8 µM and 11.2 µM	> 100 µM and 29.4 µM	42.4 µM and 8.27 µM	> 100 µM	> 52.1 µM and 14.5 µM	> 100 µM	> 95.5 µM and 13.2 µM	> 100 µM	38.9 µM and 14.8 µM	> 100 µM
COc1c(Cl)c2c(c(OC)c1OC)-c1ccc(SC)c(=O)cc1[C@@H](NC(=O)OCC(F)(F)F)CC2	< 0.01 µM	0.0314 µM	< 0.01 µM	> 100 µM	< 0.01 µM	> 100 µM	< 0.01 µM	> 100 µM	< 0.01 µM	> 100 µM	< 0.01 µM	< 0.01 µM	< 0.01 µM	> 39.2 µM	< 0.01 µM	> 100 µM	< 0.01 µM	> 100 µM	< 0.01 µM	
O=C([O][Hg][CH2]C1COCC([CH2][Hg][O]C(=O)c2ccccc2)O1)c1ccccc1 (centres undefined)	1.88 µM	3.55 µM	1.25 µM	14.2 µM	2.96 µM	12.5 µM	15.6 µM	29.3 µM	2.03 µM	4.62 µM	1.58 µM	2.93 µM	0.622 µM	2.12 µM	19.2 µM	35.9 µM	15.3 µM	31.1 µM	6.01 µM	19.9 µM
COc1ccc2c(CN3CCC[C@H]3C(=O)O)cc3cc4c(cc3c2c1)OCO4	6.3 µM	46.2 µM	13.5 µM	62.3 µM	5.33 µM	> 100 µM	11.4 µM	30.1 µM	5.65 µM	82.3 µM	12 µM	63 µM	13.2 µM	> 100 µM	38.1 µM	> 100 µM	19.4 µM	86.1 µM	13.3 µM	27.3 µM
CCOc1ccc(Nc2nc(-c3ccc4c(c3)NC(=O)CO4)cs2)cc1	11.1 µM	33.6 µM	3.18 µM	23.3 µM	2.01 µM	5.28 µM	18 µM	> 100 µM	4 µM	> 100 µM	20.2 µM	> 100 µM	10.7 µM	> 100 µM	> 100 µM	> 100 µM	15.4 µM	> 100 µM	4.33 µM	17.4 µM
C=C1C(=O)[C@@]23CC1C(O)[C@@H](OC(C)=O)[C@@H]2C1(C)C(OC(C)=O)C[C@@H](OC(C)=O)C(C)(C)[C@@H]1C[C@H]3OC(C)=O (some centres undefined)	1.69 µM and 1.72 µg/mL	3.15 µM and 3.26 µg/mL	6.33 µg/mL	6.7 µM and 19.1 µg/mL	1.71 µM and 1.28 µg/mL	4.1 µM and 4.03 µg/mL	> 10 µM and 7.25 µg/mL	> 10 µM and 20.5 µg/mL	3.37 µM and 3.94 µg/mL	> 10 µM and 20.1 µg/mL	> 10 µM and 3.93 µg/mL	> 10 µM and 8.34 µg/mL	> 10 µM and 13.9 µg/mL	> 10 µM and 27 µg/mL	> 10 µM and 7.32 µg/mL	> 10 µM and 16 µg/mL	19.2 µg/mL	> 10 µM and 34.9 µg/mL	2.33 µM and 2.68 µg/mL	> 10 µM and 7.15 µg/mL
C=C(C)CN(CC#N)CC(=C)C		> 100 µM		> 100 µM		> 100 µM		> 100 µM		> 100 µM		> 100 µM		> 100 µM		> 100 µM		> 100 µM		> 100 µM
Cc1ccc(C(=O)C(Cl)C(Cl)c2ccc(C)cc2)cc1 (centres undefined)		4.1 µM		18.6 µM		6.67 µM		23 µM		7.7 µM		11.2 µM		12.4 µM		33 µM		45.4 µM		35.5 µM
C[C@@H]1N=C(c2ccc(Br)cc2)Nc2nc3ccccn3c2C1=O	1.87 µM	4.75 µM	2.99 µM	> 100 µM	12.8 µM	> 100 µM	0.703 µM	7.06 µM	17 µM	> 100 µM	3.34 µM	17.8 µM	6.64 µM	> 100 µM	23.5 µM	> 100 µM	5.75 µM	> 100 µM	3.6 µM	48.2 µM
Cc1cc(-c2nnc(N)nc2-c2ccc(F)cc2)cc(Cl)n1	> 100 µM	> 100 µM	> 100 µM	> 100 µM	49.9 µM	> 100 µM	54.3 µM	> 100 µM	> 100 µM	> 100 µM	> 100 µM	> 100 µM	> 100 µM	> 100 µM	> 100 µM	> 100 µM	> 100 µM	> 100 µM	> 100 µM	> 100 µM
Nc1cc(-c2cccc(OC(F)(F)F)c2)nc2ccc(N3CCCC3)cc12	0.041 µM and 0.0391 µM and 0.0357 µM	1.42 µM and 2.61 µM	0.037 µM and 0.036 µM and 0.0354 µM	17.2 µM and > 100 µM	0.0447 µM and 0.0422 µM and 0.0405 µM		0.0427 µM and 0.0525 µM and 0.0495 µM	12.2 µM and > 100 µM and > 64.4 µM	0.0547 µM and 0.0497 µM and 0.0459 µM	32.6 µM and > 100 µM	0.0318 µM and 0.0288 µM and 0.0273 µM		0.041 µM and 0.0391 µM and 0.0371 µM		0.113 µM and 0.0843 µM and 0.0687 µM	99.2 µM and > 100 µM	0.0463 µM and 0.0508 µM and 0.0489 µM	22 µM and > 100 µM	0.0285 µM and 0.0215 µM and 0.0168 µM	1.6 µM and 1.7 µM
O=CN1N=C(c2ccc(Cl)cc2)CC1c1cccc(Nc2ccnc3cc(Cl)ccc23)c1 (centres undefined)	1.43 µM	4.51 µM	0.866 µM	16 µM	1.13 µM	11 µM	1.7 µM	> 100 µM	1.92 µM	29.1 µM	1.1 µM	14.5 µM	2.47 µM	13.6 µM	9.42 µM	> 100 µM	1.21 µM	16.1 µM	1.55 µM	13.5 µM
COc1ccc2c(c1)OC1=C(C(=O)OC1)C2c1cc(OC)c(OC)c(OC)c1 (centres undefined)	0.312 µM	0.974 µM	0.35 µM	> 100 µM	0.542 µM	> 47.2 µM	0.295 µM	> 100 µM	0.709 µM	> 100 µM	0.313 µM	1.14 µM	0.456 µM	> 100 µM	4.3 µM	> 100 µM	0.545 µM	> 100 µM	0.471 µM	> 100 µM
O=C1c2cc([N+](=O)[O-])ccc2-c2cccc(F)c21		> 100 µM		> 100 µM		> 100 µM		> 100 µM		> 100 µM		> 100 µM		> 100 µM		> 100 µM		> 100 µM		> 100 µM
